Data from patent US20250099415A1, “Methods for Inhibiting the Progression of Oxidative Retinal Disease” (BioJiva LLC, priority 2021, published 2025).

System: macular degeneration patients
Test: Clinical study of geographic atrophy progression in macular degeneration patients, treated versus placebo cohort
Format: in vivo, human
Method: This example illustrates the reduction in the rate of macular degeneration progression in a cohort of patients treated with deuterated docosahexaenoic acid ethyl ester similar to that of Example 1, as compared to a cohort of placebo patients. Specifically, the treated cohort […]. The patients are maintained on this dosing regimen throughout the clinical study. Periodic measurements of further geographic atrophy development are obtained.
Dosing is continued for 6 or 12, or 18 or 24 months. At that time, the average extent of geographic atrophy progression is measured for each cohort. The efficacy of the treatment protocol is evaluated by comparing the extent of geographic atrophy progression in a treated population against a placebo population. […]
Alternatively, the rate of disease progression for an individual patient can be assessed by the following: • a) determine the rate of disease progression for said individual patient by measuring the extent of geographic atrophy in the patient's retina at the start of therapy and at 6, 12, 18 or 24 months post start of therapy and assigning a […] value “D” to that differential; • b) determine the average rate of disease progression for a cohort of patients treated with placebo (safflower oil) by measuring the extent of geographic atrophy in each of the patient's retina at the start of therapy and at 6, 12, 18 or 24 months post start of therapy, determining the difference between the extent of atrophy at the start of therapy and at the later time point, and then obtaining an average for that differential and assigning a second value designated as “E” to that average differential; • c) calculating the difference between D and E and assign “F” to that value (e.g, E−D=F); • d) assign a positive value to “F” if E is greater than D; • e) assign a negative value to “F” if E is less than D; and • f) divide F by E and multiply by 100 [(F/E)×100]. […]

[1] = 6, 12, 18 or 24 months post start of therapy, placebo safflower oil

Deuterated Docosahexaenoic Acid Ethyl Ester
reduction in the rate of disease progression (extent of geographic atrophy progression, treated population against placebo population) (250 mg/day, dosing for 6 or 12, or 18 or 24 months, versus safflower oil placebo cohort): statistically significant reduction in the rate of disease progression | percent reduction in geographic atrophy, individual treated patient vs placebo cohort [(F/E)×100] [1]: positive percent reduction in geographic atrophy that is statistically significant | percent reduction in geographic atrophy, treated cohort vs placebo cohort [(C/B)×100] [1]: positive percent reduction in geographic atrophy that is statistically significant
